# Measured values reported in patent publication US8697705B2, “Isoindolinone derivatives” (Hoffmann-La Roche Inc., priority 2011, dated 2014).
# Key:
# [1] = molecular target: T1, Recombinant human liver GK1 (GST-GK) (Homo sapiens, UniProt P35557); assay: Glucokinase in vitro assay (G6PDH-coupled, NADH generation, OD340); assay type: biochemical; settings: 30° C., 5 mM D-glucose, 10% dimethylsulfoxide
# T1 construct: made in house; host or cells: E. coli
# T1 sequence (P35557 1-466 isoform P35557-2): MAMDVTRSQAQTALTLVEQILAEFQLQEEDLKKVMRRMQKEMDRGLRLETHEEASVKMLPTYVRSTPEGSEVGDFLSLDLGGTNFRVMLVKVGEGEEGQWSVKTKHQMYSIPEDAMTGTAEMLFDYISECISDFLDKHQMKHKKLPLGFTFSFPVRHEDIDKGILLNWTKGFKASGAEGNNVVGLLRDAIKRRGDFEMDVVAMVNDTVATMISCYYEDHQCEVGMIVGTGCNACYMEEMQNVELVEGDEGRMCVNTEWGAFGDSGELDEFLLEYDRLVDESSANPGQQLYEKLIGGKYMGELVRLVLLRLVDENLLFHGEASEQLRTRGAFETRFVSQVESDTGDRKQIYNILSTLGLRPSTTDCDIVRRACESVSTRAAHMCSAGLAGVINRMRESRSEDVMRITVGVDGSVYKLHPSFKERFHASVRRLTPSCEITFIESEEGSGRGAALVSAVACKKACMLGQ
# Protocol: Glucokinase In Vitro Assay Protocol:
# Glucokinase (GK) was assayed by coupling the production of glucose-6-phosphate to the generation of NADH with glucose-6-phosphate dehydrogenase (G6PDH, 0.75-1 kunits/mg; Boehringer Mannheim, Indianapolis, Ind.) from Leuconostoc mesenteroides as the coupling enzyme (Scheme 2).
# Recombinant human liver GK1 was expressed in E. coli as a glutathione S-transferase fusion protein (GST-GK) and was purified by chromatography over a glutathione-Sepharose 4B affinity column using the procedure provided by the manufacturer (Amersham Pharmacia Biotech, Piscataway, N.J.).
# The assay was conducted at 30° C. in a flat bottom 96-well tissue culture plate from Costar (Cambridge, Mass.) with a final incubation volume of 120 μL. The incubation reaction contained the following: 25 mM Hepes buffer (pH 7.1), 25 mM KCl, 5 mM D-glucose, 1 mM ATP, 1.8 mM NAD, 2 mM MgCl2, 1 μM sorbitol-6-phosphate, 1 mM dithiothreitol, test drug or 10% dimethylsulfoxide, ˜7 units/ml G6PDH, and GK (see below). All organic reagents were >98% pure and were from Boehringer Mannheim with the exceptions of D-glucose and Hepes which were from Sigma Chemical Co, St Louis, Mo. Test compounds were dissolved in dimethylsulfoxide and were added to the incubation reaction minus GST-GK in a volume of 12 μL to yield a final dimethylsulfoxide concentration of 10%. This mix was pre-incubated in the temperature controlled chamber of a SPECTRAmax 250 microplate spectrophotometer (Molecular Devices Corporation, Sunnyvale, Calif.) for 10 minutes to allow temperature equilibrium and then the reaction was started by the addition of 20 μL GST-GK.
# After addition of enzyme, the increase in optical density (OD) at 340 nm was monitored spectrophotometrically to determine the rate of change (OD340 per min). The GK activity (OD340/min) in control wells (10% dimethylsulfoxide minus GK activators) was compared with the activity in wells containing test GK activators, and the concentration of activator that produced a 50% increase in the activity of GK, i.e., the SC1.5, was calculated.
# C57BL/6J mice = assay: Glucokinase activator in vivo screen: blood glucose lowering after oral gavage in mice; settings: Mus musculus; vs. control at 2 hours post 25 mg/kg oral dose, C57B6 mice; read-out: % gluc lowering @ 2 H
# Protocol: Glucokinase Activator In Vivo Screen Protocol in Lean Mice:
# Lean C57BL/6J mice were orally dosed via gavage with Glucokinase (GK) activator following a two hour fasting period. Blood glucose determinations were made at various (e.g. 0, 1, 2, 4 and 8 hours post-oral gavage) times during the study.
# C57Bl/6J mice were obtained from Jackson Laboratory (Bar Harbor, Me.) and were maintained in a light-dark cycle with lights on from 0600-1800 hr. For studies in lean mice, the mice were received at age ten weeks and given ad libitum access to control diet (LabDiet 5001 chow, PMI Nutrition, Brentwood, Mo.), and were at least age 11 weeks at the time of study. For studies in the DIO model, the mice were received at age five weeks and given ad libitum access to Bio-Sery F3282 High Fat Diet (Frenchtown, N.J.), and were at least age 16 weeks at the time of study. The experiments were conducted during the light phase of the light-dark cycle. Mice (n=6) are weighed and fasted for a two hour period prior to oral treatment. GK activators are formulated in Gelucire vehicle (Ethanol:Gelucire44/14:PEG400q.s. 4:66:30 v/w/v). For studies in lean mice, the mice were dosed orally with 5.0 μL per gram of body weight (i.e. 5 ml/kg×10.0 mg/ml formulation to equal a 50 mg/kg dose). For studies in DIO mice, the mice were dosed orally with 5.0 μL per gram of body weight (i.e. 5.0 ml/kg×5 mg/ml formulation to equal a 25 mg/kg dose). Immediately prior to dosing, a pre-dose (time zero) blood glucose reading was acquired by snipping off a small portion of the animal's tail and collecting 15 μL blood into a heparinized capillary tube for analysis. Following GK activator administration, additional blood glucose readings were taken at various time points post dose from the same tail wound. Results were interpreted by comparing the mean blood glucose values of vehicle treated mice with GK activator treated mice over the study period.
# Table 2 below provides data for % glucose lowering of a representative number of compounds of the present invention vs. control at 2 hours post 25 or 50 mg/kg dose in C57B6 mice: […]
SC1.5 (concentration of activator that produced a 50% increase in the activity of GK) [1],SMILES,change in vivo at 25 mg/kg (C57BL/6J mice)
0.032 µM,"COC(C)(C)Cn1ccc(NC(=O)[C@H](CC2CCCC2)N2Cc3c(cccc3C(F)(F)F)C2=O)n1 [Example 7, (S)-3-Cyclopentyl-N-[1-(2-methoxy-2-methyl-propyl)-1H-pyrazol-3-yl]-2-(1-oxo-4-trifluoromethyl-1,3-dihydro-isoindol-2-yl)-propionamide]",-48.2%
0.176 µM,"O=C(Nc1cnccn1)[C@H](CC1CCCC1)N1Cc2c(cccc2C(F)(F)F)C1=O [Example 15, (S)-3-Cyclopentyl-2-(1-oxo-4-trifluoromethyl-1,3-dihydro-isoindol-2-yl)-N-pyrazin-2-yl-propionamide]",-22.5%

# The next lines start with the compound.
SMILES,SC1.5 (concentration of activator that produced a 50% increase in the activity of GK) [1],change in vivo at 25 mg/kg (C57BL/6J mice)
"O=C(Nc1ccn(CCO)n1)[C@H](CC1CCCC1)N1Cc2c(cccc2C(F)(F)F)C1=O [Example 2, (S)-3-Cyclopentyl-N-[1-(2-hydroxy-ethyl)-1H-pyrazol-3-yl]-2-(1-oxo-4-trifluoromethyl-1,3-dihydro-isoindol-2-yl)-propionamide]",0.186 µM,-38.8%
"CC(C)OCCn1ccc(NC(=O)[C@H](CC2CCCC2)N2Cc3c(cccc3C(F)(F)F)C2=O)n1 [Example 17, (S)-3-Cyclopentyl-N-[1-(2-isopropoy-ethyl)-1H-pyrazol-3-yl]-2-(1-oxo-4-trifluoromethyl-1,3-dihydro-isoindol-2-yl)-propionamide]",0.179 µM,-40.2%
"Cn1ccc(NC(=O)[C@H](CC2CCCC2)N2Cc3c(cccc3C(F)(F)F)C2=O)n1 [Example 1, (S)-3-Cyclopentyl-N-(1-methyl-1H-pyrazol-3-yl)-2-(1-oxo-4-trifluoromethyl-1,3-dihydro-isoindol-2-yl)-propionamide]",0.187 µM,-39.8%
"O=C(Nc1cnc([C@H](O)CO)cn1)[C@H](CC1CCCC1)N1Cc2c(cccc2C(F)(F)F)C1=O [Example 21, (S)-3-Cyclopentyl-N-[5-((S)-1,2-dihydroxy-ethyl)-pyrazin-2-yl]-2-(1-oxo-4-trifluoromethyl-1,3-dihydro-isoindol-2-yl)-propionamide]",0.255 µM,-36.6%
